Several values for one entry are separate records, joined by “and”; a condition that tells them apart may be missing. Identical values can stand only once.

Holding throughout (assay type): in vivo, C57BL/6 Apoe KO mice
The subject of experiment [1] is Apoe KO mouse atherosclerosis model. The experiment can be described thus: Atherosclerosis model (Apoe KO mice, high-fat diet): blood lipid tests TCHO, TG, LDL-C, HDL-C. On the set-up: blood lipids (CHO) in Apo E−/− mice / blood lipids (TG) in Apo E−/− mice / blood lipids (HDL-C) in Apo E−/− mice / blood lipids (LDL-C) in Apo E−/− mice: unit not given here. The settings on record: for blood lipids (CHO) in Apo E−/− mice / blood lipids (HDL-C) in Apo E−/− mice / blood lipids (LDL-C) in Apo E−/− mice / blood lipids (TG) in Apo E−/− mice: HFD + ATV-5 mpk, 5 mg/kg. Here is the method: (§1) Method: Apoe KO mice were tested for basal blood lipid levels and divided into a normal control group and a high-fat group. After 8 weeks of housing, the mice from the high-fat group were divided into 4 groups of about 8: a normal diet group (Chow), a high-fat diet model group (HFD), an Atorvastatin positive group (HFD+atorvastatin 5 mpk, QD), and a GEN1-284s group (284-60 mpk, QD). Oral administration was performed for 8 consecutive weeks, and the effect of the compound on the following indicators in Apoe KO mice was observed: 4 blood lipid tests (TC, TG, HDL-C and LDL-C), aortic plaque En-face staining, and pathological oil red staining of the cardiac outflow tract.
(§2) Mice from the groups except for the normal diet control group (Chow) were fed with high-fat feed every day for […]. From week 9, each group was orally administered solvent or a corresponding test compound, and body weight data were recorded every day for 8 consecutive weeks. After the first 8 weeks' high-fat diet, blood samples were taken and centrifuged to separate serum, and the serum was tested for blood lipid levels (TCHO, TG, LDL-C and HDL-C). The mice were randomly grouped according to the TCHO results and body weight. During the subsequent 8 weeks of administration, blood lipid tests (TCHO, TG, LDL-C and HDL-C) were run once every 4 weeks.
Mice were fasted overnight, and blood (150 μL) was collected via mandibular blood sampling or eye ball removal (for endpoint only) and left at room temperature for 2 h. The blood was centrifuged at 4° C. at 7000 rpm for 10 min, and serum was pipetted, quick-frozen in dry ice and then stored at −80° C. before analysis. The serum was tested for the biochemical indicators TCHO, TG, LDL-C and HDL-C using kits and a microplate reader.

For experiment [2] the test system is unchanged. Briefly: Atherosclerosis model: plaques in the cardiac (left ventricular) outflow tract. Here is the method: as §1, §2
Mouse heart samples were fixed overnight in 4% paraformaldehyde solution and dehydrated in sucrose solution. Then, the samples were embedded with OCT (Sakura, Japan) under a stereo microscope and made into 10 μm frozen sections. The sections were stained with oil red ORO and then subjected to routine pathological examinations. Images of the outflow tract were acquired under an optical microscope at 4× magnification, and high-quality morphological observations were carried out using an eyepiece with 20× magnification. The percentage of intimal lesions in the cardiac outflow tract was calculated. The detection criteria followed the criteria for histological classification of human atherosclerotic disease, which are described in detail below:
The area of plaques in the left ventricular outflow tract was measured using a microscope, and the proportion of plaques in the left ventricular outflow tract was calculated; this value reflects the degree of stenosis in the cardiac outflow tract vessel.

Experiment [3] has the same test system. The experiment can be described thus: Atherosclerosis model: aortic plaque En-face staining and plaque area. The method, then: as §1, §2
At the end of the experiment, the mice were euthanized by CO2 inhalation, and their hearts and aortas (from the aortic arch to the iliac artery) were isolated. The isolated artery was dissected longitudinally from the aortic arch to the iliac artery, fixed in 4% paraformaldehyde for 30 min, synchronized with 60% isopropanol for 10 min, then stained in 60% oil red for 30 min, and then washed with 60% isopropanol 3 times for 5 min each time. Finally, the stained aorta was washed with deionized water and photographed. The proportion of red plaque areas was measured using Image Pro Plus 6.0 (Media Cybernetics, MD, US).

[4] abbreviates: Apoe KO mice, high-fat diet, atorvastatin 5 mpk QD oral.

For `CC(C)c1c(C(=O)Nc2ccccc2)c(-c2ccccc2)c(-c2ccc(F)cc2)n1CC[C@@H](O)C[C@@H](O)CC(=O)O` [ATV], in experiment [1] (Time 1, individual mice), the “blood lipids (CHO) in Apo E−/− mice” value was 1.195 and 1.061 and 1.217 and 1.075 and 1.359 and 0.7849 and 0.5037; the “blood lipids (HDL-C) in Apo E−/− mice” value is 0.4304 and 1.163 and 1.735 and 1.563 and 1.618 and 1.29 and 1.027; the “blood lipids (LDL-C) in Apo E−/− mice” value is 1.101 and 1.061 and −0.07821 and 1.123 and 1.296 and 0.676 and 1.006; the “blood lipids (TG) in Apo E−/− mice” value is 1.038 and 0.845 and 1.136 and 1.282 and 0.875 and 1.001 and 0.9307. In experiment [1] (Time 2, individual mice), the “blood lipids (CHO) in Apo E−/− mice” value was 0.8468 and 0.9207 and 0.799 and 1.023 and 0.6043 and 0.8602 and 0.8475 and 0.8932; the “blood lipids (HDL-C) in Apo E−/− mice” value is 1.178 and 0.769 and 0.5861 and 0.7669 and 0.6443 and 0.8023 and 0.8584 and 0.9664; the “blood lipids (LDL-C) in Apo E−/− mice” value was 0.7237 and 0.8132 and 0.6614 and 1.342 and 0.603 and 0.5797 and 1.152 and 1.234; the “blood lipids (TG) in Apo E−/− mice” value is 1.204 and 0.9447 and 1.095 and 1.111 and 0.7477 and 0.9934 and 0.7632 and 0.9336. In addition, in experiment [1] (Time 3, individual mice), the “blood lipids (CHO) in Apo E−/− mice” value is 1.237 and 0.9298 and 1.587 and 1.424 and 1.118 and 0.7614 and 1.278 and 1.057; the “blood lipids (HDL-C) in Apo E−/− mice” value was 0.713 (2×) and 0.8416 and 0.6487 and 1.292 and 1.1791 and 0.8576 (2×); the “blood lipids (LDL-C) in Apo E−/− mice” value was 0.9753 and 0.8023 and 0.8722 and 0.6477 and 0.7655 and 0.4564 and 1.218 and 1.421; the “blood lipids (TG) in Apo E−/− mice” value is 1.341 and 0.9611 and 1.459 and 1.456 and 0.9501 and 1.063 and 1.577 and 0.6584. Also, in experiment [1] (Time 4, individual mice), the “blood lipids (CHO) in Apo E−/− mice” value was 1.183 and 1.199 and 1.344 and 1.673 and 1 and 1.22 and 0.7566 and 1.398; the “blood lipids (HDL-C) in Apo E−/− mice” value is 0.9522 and 1.062 and 0.6434 and 4.724 and 0.6654 and 1.371 and 0.6875 and 0.8419; the “blood lipids (LDL-C) in Apo E−/− mice” value was 1.05 and 1.675 and 0.9086 and 0.8511 and 1.319 and 0.3604 and 0.6019 and 1.123; the “blood lipids (TG) in Apo E−/− mice” value was 1.516 and 1.429 and 2.38 and 2.165 and 1.213 and 1.476 and 0.5106 and 0.9949. Further, the “plaques in the cardiac outflow tracts of mice (proportion of plaques in the left ventricular outflow tract)” value in experiment [2] (HFD + ATV-5 mpk, PO QD 8 W, individual mice, 5 mg/kg, in %) is 1.923 and 8.46 and 9.071 and 7.844 and 1.618 and 3.771 and 2.279 and 8.38. The “atherosclerotic plaques in mice (proportion of arterial plaque area)” value in experiment [3] (HFD + ATV-5 mpk, PO QD 8 W, individual mice, 5 mg/kg, in % (unit assumed)) was 10.98 and 13.52 and 8.609 and 9.551 and 9.286 and 13.92 and 13.86.

With `CC(C)c1c(C(=O)Nc2ccccc2)c(-c2ccccc2)c(-c2ccc(F)cc2)n1CC[C@@H](O)C[C@@H](O)CC(=O)O` [atorvastatin, reference compound], the Effect on dyslipidemia entry in experiment [1] (Apoe KO mice, high-fat diet, atorvastatin 5 mpk QD oral, 8 weeks) was “dyslipidemia was relieved”. Besides, in experiment [2] (setting [4]), the “Left ventricular outflow tract plaques” value was “significantly fewer plaques than the HFD group”. Moreover, the “Proportion of the arterial plaque area” value in experiment [3] (setting [4]) is given as “significantly reduced”.

For the origin of these results see US20240391940A1, “FUSED RING-CONTAINING COMPOUND, APPLICATION THEREOF, AND COMPOSITION CONTAINING SAME” (GenEros Biopharma Ltd., priority 2020, published 2024).
